Results: US20180282271A1, “ANTIBIOTIC AMINO ACID MIMETICS” (priority 2017, published 2018)
Converted amounts (≈) assume the structure as drawn. Where a name gives a salt, the structure may show the parent alone. Where a SMILES comes first, the peptide text is derived from it. [ ]: non-standard residue; d: D form. The star is where a group is joined. ξ: configuration not given here. ξF = NC(Cc1ccccc1)C(=O)O; ξhCys = NC(CCS)C(=O)O; ξC = NC(CS)C(=O)O; tBu = CC(C)(C)*; NHOH = ON*

Legend:
E. coli = test: MIC, conventional methods; format: cell-based, Escherichia coli
Description: (§1) The following L,L-dipeptides were tested for their minimum inhibitory concentrations against three different bacterial strains as set forth in the table below. The testing protocol followed conventional methods and identified a MIC value reported as micrograms per milliliter (μg/mL). Each of the dipeptides had the following structure: Based on the above results, the sidechain of the methionine mimetic was modified to evaluate the effect of such substitution on MIC values. Again, this test used conventional assays to measure the MIC values of each of these modified mimetics.

S. aureus = test: MIC, conventional methods; format: cell-based, Staphylococcus aureus
Description: as §1

P. aer. = test: MIC, conventional methods; format: cell-based, Pseudomonas aeruginosa
Description: as §1

E. coli (ATTC 8739) = test: Zone of inhibition test; format: cell-based; conditions: for concentration at which a zone of inhibition was shown: E. coli grown in a Petri dish, FIG. 1A/1B; for strength of the zone of inhibition, in words: cpd. A at 50 μg, Ex. 3 at 12.5 μg
Description: Compound A was tested against L-phenylalanine-(S)-2-amino-N-hydroxy-4-(methylthio)butanamide hydrochloride (Example 3) in a side-by-side comparison in a conventional zone of inhibition test. In this test, both compounds were compared at various concentrations against E. coli (ATTC 8739) grown in a Petri dish using the antibiotic kanamycin as a control.

[1] = Table 2, side chain Q of the methionine mimetic varied
[2] = Table 1, L,L-dipeptides varied in T

SMILES	MIC E. coli (E. coli; [1]) [µg/mL]	MIC S. aur. (S. aureus; [1]) [µg/mL]	MIC P. aer. (P. aer.; [1]) [µg/mL]	MIC E. coli (E. coli; [2]) [µg/mL]	MIC S. aur. (S. aureus; [2]) [µg/mL]	MIC P. aer. (P. aer.; [2]) [µg/mL]	concentration at which a zone of inhibition was shown (E. coli (ATTC 8739)) [µg]	strength of the zone of inhibition, in words (E. coli (ATTC 8739))
C[S+]([O-])CCC(NC(=O)CN)C(=O)NO (stereo not shown) [G]	123 (≈ 518 µM)	51 (≈ 215 µM)	416 (≈ 1750 µM)					
CC(C)(C)SCCC(NC(=O)CN)C(=O)NO (stereo not shown) [L] (H-Gly-[ξhCys](tBu)-{NHOH})	207 (≈ 786 µM)	77 (≈ 292 µM)	624 (≈ 2370 µM)					
CSCC[C@H](NC(=O)[C@H](C)N)C(=O)NO [B] (H-Ala-Met-{NHOH})				158 (≈ 671 µM)	131 (≈ 557 µM)	1040 (≈ 4420 µM)		
CSCC[C@H](NC(=O)C(N)Cc1ccccc1)C(=O)NO (stereo partly drawn) [Example 3, L-phenylalanine-(S)-2-amino-N-hydroxy-4-(methylthio)butanamide hydrochloride] (H-[ξF]-Met-{NHOH})							12.5	substantially stronger than the zone of inhibition for cpd. A at 50 μg
CC(C)(C)SCC(NC(=O)CN)C(=O)NO (stereo not shown) [N] (H-Gly-[ξC](tBu)-{NHOH})	195 (≈ 782 µM)	77 (≈ 309 µM)	693 (≈ 2780 µM)					
CSCC[C@H](NC(=O)[C@@H](N)CCCCN)C(=O)NO [Compound E]				312 (≈ 1070 µM)	104 (≈ 356 µM)	>1660		

More lines, main results first:

MIC E. coli (E. coli; [1]) [µg/mL]	MIC S. aur. (S. aureus; [1]) [µg/mL]	MIC P. aer. (P. aer.; [1]) [µg/mL]	MIC E. coli (E. coli; [2]) [µg/mL]	MIC S. aur. (S. aureus; [2]) [µg/mL]	MIC P. aer. (P. aer.; [2]) [µg/mL]	SMILES	concentration at which a zone of inhibition was shown (E. coli (ATTC 8739)) [µg]	strength of the zone of inhibition, in words (E. coli (ATTC 8739))
150 (≈ 570 µM)	60 (≈ 228 µM)	138 (≈ 524 µM)				CCCCSCCC(NC(=O)CN)C(=O)NO (stereo not shown) [K]		
69 (≈ 339 µM)	51 (≈ 251 µM)	520 (≈ 2560 µM)				CCCCC(NC(=O)CN)C(=O)NO (stereo not shown) [I]		
138 (≈ 624 µM)	84 (≈ 380 µM)	647 (≈ 2920 µM)	138 (≈ 624 µM)	84 (≈ 380 µM)	647 (≈ 2920 µM)	CSCC[C@H](NC(=O)CN)C(=O)NO [Compound A]	50	quite weak
